{
  "source": "patent US11213522B2",
  "about": "“Autoimmune-induced glutamatergic receptor dysfunction methods and treatments” (SARAH HERZOG MEMORIAL HOSPITAL EZRAT NASHIM ASSOCIATION, priority 2013, dated 2022)",
  "key": {"[1]": {"details": "acute and chronic administration of 1-2 g DSR in humans; cited from earlier work"}, "[2]": {"system": "Rodent neuron cell cultures treated with anti-NMDAR antibodies", "assay": "Example 3: NMDAR localization in neuron cultures treated with anti-NMDAR antibodies", "type": "cell-based", "details": "D-Serine 50-200 uM; histological measurements", "method": "Rodent neuron cell cultures are treated with anti-NMDAR antibodies as described in Hughes E G et al., J Neurosci 2012 30(17):5866-75. […] The determination of receptors localization and other relevant measures is based on histological measurements.\nImmunohistochemical methods will be applied to document (a) localization of NMDAR and NR1 and NR2 subunits; (b) loss of oligodendrocytes; (c) changes in astrocytes (S100beta) and microglia (cd11b), (d) expression of neurotrophic factors: brain derived neurotrophic factor (BDNF), nerve growth factor (NGF) and ciliary neurotrophic factor (CNTF); (e) markers of neurogenesis—doublecortin (17) and apoptosis—caspase3 (9). Quantification of histological measurements is based on images in several cortical subregions, striatum, […], hippocampus, and cerebellum."}, "[3]": {"system": "patient positive for anti-NR1 NMDAR antibodies", "assay": "Abnormal Involuntary Movement Scale (AIMS), D-serine clinical trial", "type": "in vivo, human", "details": "for AIMS: week 0 score 1", "description": "Out of the seventeen patients that entered the study, the serum of one patient was strongly positive at both serum sample dilutions for the presence of both IgG and IgM classes of anti-NR1 NMDAR antibodies. The patient was a single person having a diagnosis of schizophrenia according to DSM-IV-R criteria (American Psychiatric Association, 2000 Diagnostic and Statistical Manual of Mental Disorders-(DSM-IV-TR), 4th edition. American Psychiatric Association Washington D.C. (Text Revision)). There was no history of mental disorder in the patient's family. The patient had completed post-high school studies and had worked as a secretary. After a period of continuous headaches, for which no organic basis had been found, they had abruptly developed an acute psychosis characterized by grandiose and paranoid delusions, mystical thinking, […] affect and agitation, They had been hospitalized in a psychiatric hospital and underwent treatment with antipsychotic drugs and electroconvulsive therapy with only partial response. The patient had never returned to their previous functional and except for short attempts at living in the community, has been hospitalized ever since. They have been refractory to treatment with various classes of antipsychotic drugs, was not diagnosed with any medical or neurological disorder and was maintained on sulpiride 50 mg/day, citalopram 40 mg/day, lorazepam 1 mg/day and promethazine 50 mg/day. […] DSR is a naturally occurring amino acid that acts in vivo as an obligatory co-agonist at the glycine modulatory site associated with NMDAR. […] Both acute and chronic administration of 1-2 g DSR in humans is known to result in ≥100 times increases in DSR serum levels (Kantrowitz et al., 2010, Schizophr Res121:125-30; Heresco-Levy et al., 2005, Biol Psychiatry 57:577-85). The trial consisted of two periods, starting with a 2 week lead-in/stabilization period (-2-0) following which the patient was entered in the second period of the study which consisted of a 6 week (0-6), open-label, fixed dose therapy phase. During this phase, the patient received adjuvant treatment with DSR, whose dose was increased from 1500 mg/day (week 1) to 2000 mg/day (weeks 2 and 3) to 3000 mg/day (weeks 4 and 5) and to 4000 mg/day (week 6). The doses of the ongoing medication received by the patient remained fixed throughout the study and no changes in medication were performed. The assessment procedures used in the study included clinical and neurocognitive examinations. Motor and psychiatric symptoms as well as side-effects were rated biweekly throughout the study. […] In conjunction with UKU ratings, patient's vital signs and body weight were monitored throughout the study."}},
  "data": [
    {"smiles": "N[C@H](CO)C(=O)O", "note": "[D-serine]", "values": [
      {"measurement": "Increase in DSR serum levels", "setting": "[1]", "value": "≥ 100", "unit": "times"},
      {"measurement": "Effect on NMDAR intracellular localization", "setting": "[2]", "value": "reversing receptor intracellular localization"},
      {"measurement": "Motor symptomatology, as measured by AIMS and SAS scores", "setting": "[3]; following DSR administration, minimal at baseline", "value": "improvements were registered"},
      {"measurement": "AIMS", "setting": "[3]; study week 2", "value": 0},
      {"measurement": "AIMS", "setting": "[3]; study week 4", "value": 0},
      {"measurement": "AIMS", "setting": "[3]; study week 6", "value": 0}
    ]}
  ]
}
